The source of these data is US5120752A, “Cyclopropyl derivative lipoxygenase inhibitors” (Abbott Laboratories, priority 1990, dated 1992).

A word on the IC50: it is the concentration at which inhibition is half-maximal.

The target of this assay is T1, 5-lipoxygenase (Rattus norvegicus, UniProt P12527).
T1 construct: 20,000×g supernatant from 1.5 million homogenized RBL-1 cells; endogenous in cells; host or cells: RBL-1 cells (20,000×g supernatant of homogenate)
T1 sequence (P12527 1-673): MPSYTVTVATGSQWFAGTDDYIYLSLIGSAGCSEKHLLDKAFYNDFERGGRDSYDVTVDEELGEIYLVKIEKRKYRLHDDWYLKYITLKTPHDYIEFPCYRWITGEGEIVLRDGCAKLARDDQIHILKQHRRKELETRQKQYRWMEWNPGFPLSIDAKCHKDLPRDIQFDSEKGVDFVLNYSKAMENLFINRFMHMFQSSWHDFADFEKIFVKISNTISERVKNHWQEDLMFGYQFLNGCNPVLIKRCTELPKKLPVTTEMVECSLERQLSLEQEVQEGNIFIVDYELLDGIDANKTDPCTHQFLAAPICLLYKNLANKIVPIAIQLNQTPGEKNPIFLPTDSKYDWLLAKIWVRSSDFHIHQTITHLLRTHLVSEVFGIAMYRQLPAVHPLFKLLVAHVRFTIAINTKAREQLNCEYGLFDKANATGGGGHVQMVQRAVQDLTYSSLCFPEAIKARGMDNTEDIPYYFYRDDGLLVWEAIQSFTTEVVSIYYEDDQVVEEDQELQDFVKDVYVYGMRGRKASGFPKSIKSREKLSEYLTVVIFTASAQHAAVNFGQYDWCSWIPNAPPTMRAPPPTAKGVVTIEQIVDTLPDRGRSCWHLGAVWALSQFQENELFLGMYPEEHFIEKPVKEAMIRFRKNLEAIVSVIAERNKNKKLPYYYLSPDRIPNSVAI
In words: In vitro inhibition of 5-lipoxygenase (20,000×g supernatant from homogenized RBL-1 cells, radiolabeled arachidonic acid). The following applies: 20,000×g supernatant of RBL-1 cells; triplicate; read-out: IC50 (in vitro inhibitory potency against 5-lipoxygenase). It is filed as biochemical. How it is done:
Assays to determine 5-lipoxygenase inhibitory activity were performed in […] incubations containing the 20,000×g supernatant from 1.5 million homogenized RBL-1 cells and various concentrations of the test compound. Reactions were initiated by addition of radiolabeled arachidonic acid and terminated by acidification and ether extraction. Reaction products were separated from nonconverted substrate by thin layer chromatography and measured by liquid scintillation spectroscopy. All incubations were performed in triplicate. Inhibition of 5-lipoxygenase activity was calculated as the ratio of the amount of product formed in the presence and absence of inhibitor. IC50 values (concentration of compound producing 50% enzyme inhibition) were calculated by linear regression analysis of percentage inhibition versus log inhibitor concentration plots. (Dyer, R .D.; Haviv, F.; Hanel, A. M.; Bornemier, D. A.; Carter, G. W. Fed. Proc., Fed. Am. Soc. Exp. Biol. 1984, 43, 1462A).
Take `COc1ccc2cc([C@@H]3C[C@H]3CN(O)C(N)=O)ccc2c1` (relative stereo) [Example 18, N-(1-trans-(2-(6-methoxy-2-naphthyl)cyclopropyl)methyl)-N-hydroxyurea]: the IC50 was 200 nM.
As for `CC(C)Cc1ccc([C@@H]2C[C@H]2CN(O)C(N)=O)cc1` (relative stereo) [Example 20, N-(1-trans-(2-(4-(2-methyl-1-propyl)phenyl)cyclopropyl)-methyl)-N-hydroxyurea], the figure is 80 nM.
With `NC(=O)N(O)C[C@@H]1C[C@H]1c1ccc(OCc2ccccc2)cc1` (relative stereo) [Example 21, N-(1-trans-(2-(4-(phenylmethoxy)phenyl)cyclopropyl)methyl)-N-hydroxyurea], the IC50 was 50 nM.
Regarding `CN(O)C(=O)[C@@H]1C[C@H]1c1cccc(Oc2ccccc2)c1` (relative stereo) [Example 30], the IC50 was 100 nM.
As to `CN(O)C(=O)[C@@H]1C[C@H]1c1ccccc1` (relative stereo) [Example 31, N-methyl-N-hydroxy-trans-2-phenylcyclopropyl carboxamide], the IC50 amounted to 1400 nM.
Turning to `NC(=O)N(O)C[C@@H]1C[C@H]1c1ccc(Oc2ccccc2)cc1` (relative stereo) [Example 36, N-(1-trans-(2-(4-phenoxyphenyl)cyclopropyl)methyl)-N-hydroxyurea], the IC50 was 60 nM.
With `CC(=O)N(O)C[C@@H]1C[C@H]1c1ccc(Br)cc1` (relative stereo) [Example 38, N-(1-trans-(2-(4-bromophenyl)cyclopropyl)methyl)-N-hydroxyacetamide], the IC50 amounted to 30 nM.
In the case of `NC(=O)N(O)C[C@@H]1C[C@H]1c1cccnc1` (relative stereo) [Example 42], the IC50 is 1600 nM.
For the compound `NC(=O)N(O)C[C@@H]1C[C@H]1c1ccncc1` (relative stereo) [Example 43, N-(1-trans-(2-(4-pyridyl)cyclopropyl)methyl)-N-hydroxyurea], the IC50 stood at 5700 nM.
In the case of `CC(=O)N(O)C[C@@H]1C[C@H]1c1ccc(C)cc1` (relative stereo) [Example 46, N-(1-trans-(2-(4-methylphenyl)cyclopropyl)methyl)-N-hydroxyacetamide], the IC50 stood at 300 nM.
Turning to `NC(=O)N(O)C[C@@H]1C[C@H]1c1cccc(Oc2ccccn2)c1` (relative stereo) [Example 48, N-(1-trans-(2-(3-(2-pyridyloxy)phenyl)cyclopropyl)methyl)-N-hydroxyurea], the IC50 was 400 nM.
On to `NC(=O)N(O)C[C@@H]1C[C@H]1c1cccc(Oc2ccncc2)c1` (relative stereo) [Example 49, N-(trans-(2-(3-(4-pyridyloxy)phenyl)cyclopropyl)methyl)-N-hydroxyurea], for which the IC50 was found to be 400 nM.
As for `NC(=O)N(O)C[C@@H]1C[C@H]1c1cccc(Oc2ccc(F)cc2)c1` (relative stereo) [Example 50, N-(1-trans-(2-(3-(4-fluorophenoxy)phenyl)cyclopropyl)methyl)-N-hydroxyurea], the 50% inhibitory concentration (IC50) amounted to 100 nM.
For the compound `Cc1ccc(Oc2cccc([C@@H]3C[C@H]3CN(O)C(N)=O)c2)cc1` (relative stereo) [Example 51, N-(1-trans-(2-(3-(4-methylphenoxy)phenyl)cyclopropyl)methyl)-N-hydroxyurea], the IC50 amounted to 60 nM.
As for `COc1ccc(Oc2cccc([C@@H]3C[C@H]3CN(O)C(N)=O)c2)cc1` (relative stereo) [Example 53, N-(1-trans-(2-(3-(4-methoxyphenoxy)phenyl)cyclopropyl)-methyl)-N-hydroxyurea], the figure is 100 nM; as for `NC(=O)N(O)C[C@@H]1C[C@H]1c1cccc(Oc2ccc(OCc3ccccc3)cc2)c1` (relative stereo) [Example 54, N-(1-trans-(2-(3-(4-benzyloxyphenoxy)phenyl)cyclopropyl)-methyl)-N-hydroxyurea], 300 nM; as for `Cc1cc([C@@H]2C[C@H]2CN(O)C(N)=O)ccc1Oc1ccccc1` (relative stereo) [Example 56, N-(1-trans-(2-(3-methyl-4-phenoxy)phenylcylclopropyl)methyl)-N-hydroxyurea], 200 nM.
Regarding `COc1ccc([C@@H]2C[C@H]2CN(O)C(N)=O)cc1` (relative stereo) [Example 60, N-(1-trans-(2-(4-methoxyphenyl)cyclopropyl)methyl)-N-hydroxyurea], the IC50 worked out at 1500 nM.
For `Cc1ccc([C@@H]2C[C@H]2CN(O)C(N)=O)cc1Oc1ccccc1` (relative stereo) [Example 61, N-(1-trans-(2-(4-methyl-3-phenoxyphenyl)cyclopropyl)methyl)-N-hydroxyurea], the IC50 was 200 nM.
On to `Cc1cccc([C@@H]2C[C@H]2CN(O)C(N)=O)n1` (relative stereo) [Example 62, N-(1-trans-(2-(6-methyl-2-pyridyl)cyclopropyl)methyl)-N-hydroxyurea], for which the IC50 stood at 7600 nM.
Turning to `CC(C)c1ccc([C@@H]2C[C@H]2CN(O)C(N)=O)cc1` (relative stereo) [Example 63], the half-inhibitory concentration (IC50) was determined as 300 nM.
For `CC(C)Oc1cccc([C@@H]2C[C@H]2CN(O)C(N)=O)c1` (relative stereo) [Example 64], the IC50 was 1000 nM.
For the compound `CC(C)Oc1ccc([C@@H]2C[C@H]2CN(O)C(N)=O)cc1Br` (relative stereo) [Example 66, N-(1-trans-(2-(3-bromo-4-isopropoxyphenyl)cyclopropyl)-methyl)-N-hydroxyurea], the IC50 was 440 nM.
With `CC(C)Oc1ccc([C@@H]2C[C@H]2CN(O)C(N)=O)cc1` (relative stereo) [Example 67, N-(1-trans-(2-(4-isopropoxyphenyl)cyclopropyl)methyl)-N-hydroxyurea], the IC50 was 400 nM.
With `CC([C@@H]1C[C@H]1c1cc2ccccc2s1)N(O)C(N)=O` (single isomer, unassigned) [Example 1a, N-(1-trans-(2-(benzo[b]thien-2-yl)cyclopropyl)ethyl)-N-hydroxyurea], the IC50 is 300 nM.
Consider `CC([C@@H]1C[C@H]1c1cc2ccccc2s1)N(O)C(N)=O` (single isomer, unassigned) [Example 1b, N-(1-trans-(2-(benzo[b]thien-2-yl)cyclopropyl)ethyl)-N-hydroxyurea], for which the IC50 came out at 200 nM.
With `CC(=O)N(O)C(C)[C@@H]1C[C@H]1c1ccc(Br)cc1` (single isomer, unassigned) [Example 44, N-(1-trans-(2-(4-bromophenyl)cyclopropyl)ethyl)-N-hydroxyacetamide], the IC50 turned out to be 100 nM.
As for `CC([C@@H]1C[C@H]1c1ccc(Oc2ccccc2)cc1)N(O)C(N)=O` (stereo partly drawn) [Example 2, N-(1-trans-(2-(4-phenoxyphenyl)cyclopropyl)ethyl)-N-hydroxyurea], the figure is 100 nM; as for `CC(Oc1ccc([C@@H]2C[C@H]2C(C)N(O)C(N)=O)cc1)c1ccccc1` (stereo partly drawn) [Example 7, N-(1-trans-(2-(4-(1-phenylethoxy)phenyl)cyclopropyl)ethyl)-N-hydroxyurea], 400 nM.
As for `CNC(=O)N(O)C(C)[C@@H]1C[C@H]1c1cc2ccccc2s1` (stereo partly drawn) [Example 8, N-(1-trans-(2-(benzo[b]thien-2-yl)cyclopropyl)ethyl)-N-hydroxy-N'-methylure], the IC50 worked out at 200 nM.
With `CC([C@@H]1C[C@H]1c1ccc(OCc2ccccc2)cc1)N(O)C(N)=O` (stereo partly drawn) [Example 14, N-(1-trans-(2-(4-(phenylmethoxy)phenyl)cyclopropyl)ethyl)-N-hydroxyurea], the IC50 was found to be 130 nM.
In the case of `CC([C@H]1[C@H](c2ccccc2)C1(C)C)N(O)C(N)=O` (stereo partly shown) [Example 24], the IC50 amounted to 100 nM.
As to `CC([C@@H]1C[C@H]1CCc1ccccc1)N(O)C(N)=O` (stereo partly drawn) [Example 32, N-(1-trans-(2(2-phenylethyl)cyclopropyl)ethyl)-N-hydroxyurea], the IC50 amounted to 100 nM.
On to `CC([C@@H]1C[C@H]1c1ccc2ccccc2c1)N(O)C(N)=O` (stereo partly drawn) [Example 45, N-(1-trans-((2-napthyl)cyclopropyl)ethyl)-N-hydroxyurea], for which the IC50 was determined as 300 nM.
For `CC(=O)N(O)C(C)[C@@H]1C[C@H]1c1ccc2ccccc2c1` (stereo partly shown) [Example 57], the IC50 is 300 nM.
As for `CC(=O)N(O)C(C)[C@@H]1C[C@H]1c1ccc(C)cc1` (stereo partly drawn) [Example 59, N-(1-trans-(2-(4-methylphenyl)cyclopropyl)ethyl)-N-hydroxyacetamide], the figure is 700 nM.
`CC(C1CC1c1ccco1)N(O)C(N)=O` (stereo not drawn) [Example 65, N-(1-trans-(2-(2-furfuranyl)cyclopropyl)ethyl-N-hydroxyurea]: the IC50 came to 3600 nM.
